# In patent US6803195B1, “Facile detection of cancer and cancer risk based on level of coordination between alleles” (Ramot At Tel-Aviv University Ltd., priority 1999, dated 2004):
# Assays:
# Assay type in all cases: cell-based, human
# [1] = system: CON samples (healthy individuals); assay: FISH replication assay, cultures of healthy individuals (CON) with chromatin modifiers (Example 10); settings: for frequency (%) of SD cells, Mean: CON + AZA (10^-7M), N = 20
# Description: (§1) Cultures were set up from 44 healthy individuals (hereafter called CON) and 20 hematological malignancy patients at diagnosis (hereafter termed CAD). For 20 of the CON samples and all of the CAD samples peripheral in addition to the setting up cultures in the regular growth medium, cultures were set up in medium containing 5-azacytidine (10^−7M; Sigma, USA; hereafter referred to as AZA) a demethylating agent. In addition, cultures from 6 CON and 10 CAD samples were set up in medium containing a deacetylating agents, either Trichostatin A (33 nM; Sigma, USA; hereafter referred to as TSA) or Sodium Butirate (1 nM; Sigma, USA; hereafter referred to as NB), two well described acetylating agents.
# (§2) These samples were hybridized with two commercial probes: the AML1 probe (LSI 21, […]) and the α-satellite probe specific for centromere 17 (32-130017, hereafter marked as CEN17). The results are summarized in Table 1 giving the number of samples hybridized with each probe (N), Mean and standard deviation (stdev) as well as the p value obtained using two tailed student's t-test (Microsoft Office 98).
# [2] = system: CAD samples (hematological malignancy patients at diagnosis); assay: FISH replication assay, cultures of hematological malignancy patients (CAD) with chromatin modifiers (Example 10); settings: for frequency (%) of SD cells, Mean: CAD + AZA (10^-7M), N = 20
# Description: as §1, §2
# [3] = system: lymphocytes of control subjects (BPH); assay: FISH replication assay, lymphocytes of benign prostate hyperplasia (BPH) subjects grown with 5-azacytidine (Example 7); settings: BPH samples; all tested loci; 10^-7M AZA
# Method: Each sample was set up for short-term culturing in F10 medium supplemented with 20% fetal calf serum (FCS), 3% phytohemagglutinin (PHA), 0.2% heparin, and 1% antibiotics (a standard solution of penicillin and streptomycin). Cultures were incubated at 37° C. for 72 hours and then colchicine (final concentration 0.1 μg/ml) was added to the culture for one hour, followed by hypotonic treatment (0.075 M KC1 at 37° C. for 15 minutes) and four washes each with a fresh cold 3:1 methanol: acetic acid solution. The cell suspensions were stored at −20° C. until used for fluorescence in situ hybridization (FISH). […]
# Slides were analyzed blindly on an Olympus BH2 fluorescent microscope, using a triple band-pass filter (Chroma technology). […] For each sample and for each treatment the frequency of SD, SS and DD cells out of the total population of cells containing two fluorescent signals was recorded (for details please see Dotan et al, Genes, Chromosomes & Cancer 27:270-277, 2000). For the determination of allelic losses at least 200 cells from the same preparation used for replication studied were analyzed for each tested sample.
# [4] = system: PHA-stimulated lymphocytes, chromosome 21, 13, 17 and 15; assay: FISH analysis of chromosome losses and gains with and without 5-azacytidine (Example 6); settings: cancerous samples 1-15, presence vs absence of AZA
# Method: Each subject donated five ml of peripheral blood. Cell cultures of PHA-stimulated lymphocytes were set up according to standard protocol (Rooney and Czepulkowsli, 1992). Briefly, 0.5 ml of peripheral blood was introduced into a 15 ml test tube containing 5ml F-10 medium supplemented with 20% fetal calf serum, 0.2% heparin, 1% penicillin/streptomycin antibiotic solution (Biological industries, Israel) and 3% phytohemagglutinin (PHA). In addition, all the 15 samples derived from the hematological patients (samples 1-15) and 15 of the 41 samples derived from non-cancerous subjects (samples 16-30) were also grown in the presence of 10^−7M 5-azacytidine (AZA; Sigman, USA) added to the other ingredients described above.
# For the analyses of chromosome losses and gains, at least 200 cells following one-color FISH with each of the chromosome enumerating probes (AML1, RB1, CEN17 and CEN15) were scored for each tested sample, employing the same preparation used for evaluating allelic replication timing. The frequency of cells containing a single signal was used to evaluate the extent of chromosome losses and the frequency of cells with three or more signals were used to assess the level of chromosome gains.
# The mean SD value of five loci (TP53, AML1, RB1, CEN17 and CEN15) and the mean losses and gains value of four loci (AML1, RB1, CEN17 and CEN15) represent each sample. […]
# [5] = cultured cells with chromatin modifier
smiles,measurement,setting,value
"Nc1ncn([C@@H]2O[C@H](CO)[C@@H](O)[C@H]2O)c(=O)n1 [AZA, 5-azacytidine]","frequency (%) of SD cells, Mean",[1]; AML1 locus,Mean = 21.5%
same,"frequency (%) of SD cells, Mean",[1]; CEN17 locus,Mean = 20.9%
same,replication pattern observed in normal genomes,[1]; [5],not affecting
same,"frequency (%) of SD cells, Mean",[2]; AML1 locus,Mean = 25.3%
same,"frequency (%) of SD cells, Mean",[2]; CEN17 locus,Mean = 22.7%
same,replication pattern in cells derived from cancer patients,[2]; [5],attenuate the replication pattern presented in cells derived from cancer patients towards the normal
same,effect of AZA on the SD values,[3],no significant effect
same,"losses and gains values (mean of AML1, RB1, CEN17 and CEN15)",[4],unchanged
